# Reference: paper PMC8151276, “An Integrated Approach toward NanoBRET Tracers for Analysis of GPCR Ligand Engagement” (Molecules, 2021)
# What was measured:
# Format in all cases: binding
# [1] = target: T1, HRH4 (Homo sapiens, UniProt Q9H3N8); experiment: NanoBRET screen HiBiT-HRH4 in HEK293
# T1 construct: purchased Promega (in-house HiBiT-GPCR construct library, NanoBRET)
# Description: (§1) Each tracer candidate was screened across the entire library of HiBiT-GPCR constructs using NanoBRET as the detection modality. As depicted in Figure 4A, the specificity of interactions was evaluated through decrease in BRET due to competitive displacement of a bound tracer by excess parental compound. Each tracer was analyzed for binding to each HiBiT-GPCR fusion in the absence and in the presence of competing parental compound. Briefly, HEK293 cells were transfected with HiBiT-GPCR constructs diluted into promoterless DNA to reduce expression and maximize translocation to the cell surface. Each tracer candidate was then screened at concentrations of 1 μM and 0.1 μM across cells expressing these fusions. Cells were treated for 1.5 h with tracer either alone or in the presence of 20 μM competing parental compound (i.e., control). BRET was measured upon addition of purified LgBiT and subsequent complementation with HiBiT genetically fused to a GPCR. The specificity of interactions was assessed through a decrease in BRET signal due to competitive displacement of the bound tracer. To further gauge the robustness of these interactions, the fold response over the control (i.e., BRETtracer/BRETcontrol) was calculated. We chose a 1.5-fold response, which translates to ≥7-fold signal over noise as the minimal threshold required to score an interaction as positive. […]. Below we highlight the screening results obtained for our exemplary fluorescent tracers based on Clozapine, Amitriptyline and AZD1283.
# (§2) HiBiT-GPCR DNA constructs were diluted in 10 mM Tris pH 8 to a final concentration of 0.01 μg/μL, arrayed in 96-well plates and stored at −20 °C. For transfection, HEK293 cells were suspended in Opti-MEM (without phenol red) supplemented with 2% fetal bovine serum (Seradigm) and 100 units/mL penicillin–streptomycin (Gibco) at a final concentration of 220,000 cells/mL and dispensed into white 96-well plates at 90 μL/well. Subsequent transfections and screens were carried using an Agilent Bravo Automated Liquid Handling Platform. First, the 96-well HiBiT DNA arrays were diluted 25-fold in Opti-MEM (without serum or phenol red) to a final concentration of 0.0004 μg/μL and 20 μL of the diluted DNAs were transferred into new 96-well plates. Next, promoterless carrier DNA (1 μg/μL) was diluted 25-fold (0.04 μg/μL) and then dispensed into the diluted arrays at 20 μL/well. Following brief mixing, Viafect transfection reagent (Promega) diluted 16-fold into Opti-MEM was dispensed into the plates at 40 μL/well. After mixing by pipetting, plates were incubated for 10 min on the pipetting station deck. The DNA-transfection reagent complexes were then added to plates containing cells. To facilitate the screen, 10 μL of DNA-transfection reagent complexes were added in duplicates to the top 4 and bottom 4 rows, resulting in two identical 48-well arrays per plate. Plates with transfected cells were incubated for 18–20 h at 37 °C/5% CO2. A screen of each tracer across the entire library using two different concentrations requires duplicate plates of transfected cells. Depending on the number of tracers being screened, transfections can be scaled up using the same ratios. The next day, for each tracer, four 20× screening solutions in tracer dilution buffer (Promega) were prepared: two duplicates at final concentration of 20 μM and two duplicates at a final concentration of 2 μM. A competing unmodified compound was added to one of each duplicate at a final concentration of 400 μM. The four resulting solutions were diluted 4-fold in Opti-MEM without serum or phenol red to generate 5× solutions (5 µM and 0.5 µM tracer +/− 100 μM competing compound). To screen the library, a BioTek MultiFlo FX liquid dispenser was used to dispense 22.5 µL of tracer solution to the top 4 rows and 22.5 µL tracer + competing compound solution to the 4 bottom rows. Plates were briefly mixed on an orbital shaker and incubated for 1.5 h at room temperature. […]
# [2] = target: T2, C5AR1 (Homo sapiens, UniProt P21730); experiment: NanoBRET screen HiBiT-C5AR1 in HEK293
# T2 construct: purchased Promega (in-house HiBiT-GPCR construct library, NanoBRET)
# T2 sequence (P21730 1-350): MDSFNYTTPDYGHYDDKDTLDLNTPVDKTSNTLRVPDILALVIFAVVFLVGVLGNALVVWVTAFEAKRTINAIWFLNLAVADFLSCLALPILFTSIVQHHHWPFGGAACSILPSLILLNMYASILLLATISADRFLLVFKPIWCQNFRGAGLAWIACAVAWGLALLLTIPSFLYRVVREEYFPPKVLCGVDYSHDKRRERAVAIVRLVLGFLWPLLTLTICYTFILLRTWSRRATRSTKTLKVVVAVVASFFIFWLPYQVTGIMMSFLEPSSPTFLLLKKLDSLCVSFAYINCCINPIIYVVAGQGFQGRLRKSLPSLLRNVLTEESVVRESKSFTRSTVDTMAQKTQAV
# Description: as §1, §2
# [3] = target: T3, P2RY4 (Homo sapiens, UniProt P51582); experiment: NanoBRET screen HiBiT-P2RY4 in HEK293
# T3 construct: purchased Promega (in-house HiBiT-GPCR construct library, NanoBRET)
# T3 sequence (P51582 whole entry): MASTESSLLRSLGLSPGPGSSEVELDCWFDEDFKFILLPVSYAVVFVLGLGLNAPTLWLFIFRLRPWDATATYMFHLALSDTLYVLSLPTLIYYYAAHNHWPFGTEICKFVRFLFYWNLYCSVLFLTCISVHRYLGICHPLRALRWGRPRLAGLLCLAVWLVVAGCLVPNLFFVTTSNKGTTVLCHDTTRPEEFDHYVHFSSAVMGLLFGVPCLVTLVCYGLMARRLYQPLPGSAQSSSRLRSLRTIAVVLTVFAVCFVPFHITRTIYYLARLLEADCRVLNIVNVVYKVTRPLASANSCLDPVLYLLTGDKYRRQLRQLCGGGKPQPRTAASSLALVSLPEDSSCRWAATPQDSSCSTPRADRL
# Description: as §1, §2
# [4] = target: T4, GALR2 (Homo sapiens, UniProt O43603); experiment: NanoBRET screen HiBiT-GALR2 in HEK293
# T4 construct: purchased Promega (in-house HiBiT-GPCR construct library, NanoBRET)
# T4 sequence (O43603 1-387): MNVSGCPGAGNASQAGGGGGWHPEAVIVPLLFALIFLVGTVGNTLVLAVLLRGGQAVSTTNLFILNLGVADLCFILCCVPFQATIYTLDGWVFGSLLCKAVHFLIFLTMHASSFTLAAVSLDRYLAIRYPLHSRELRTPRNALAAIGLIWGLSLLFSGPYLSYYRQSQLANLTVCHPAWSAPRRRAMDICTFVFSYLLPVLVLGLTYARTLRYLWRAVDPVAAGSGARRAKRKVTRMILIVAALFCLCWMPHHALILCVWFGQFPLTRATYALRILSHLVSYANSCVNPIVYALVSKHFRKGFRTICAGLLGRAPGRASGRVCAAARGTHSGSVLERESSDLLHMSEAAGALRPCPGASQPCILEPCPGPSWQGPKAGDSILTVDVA
# Description: as §1, §2
# T1 sequence (Q9H3N8 whole entry): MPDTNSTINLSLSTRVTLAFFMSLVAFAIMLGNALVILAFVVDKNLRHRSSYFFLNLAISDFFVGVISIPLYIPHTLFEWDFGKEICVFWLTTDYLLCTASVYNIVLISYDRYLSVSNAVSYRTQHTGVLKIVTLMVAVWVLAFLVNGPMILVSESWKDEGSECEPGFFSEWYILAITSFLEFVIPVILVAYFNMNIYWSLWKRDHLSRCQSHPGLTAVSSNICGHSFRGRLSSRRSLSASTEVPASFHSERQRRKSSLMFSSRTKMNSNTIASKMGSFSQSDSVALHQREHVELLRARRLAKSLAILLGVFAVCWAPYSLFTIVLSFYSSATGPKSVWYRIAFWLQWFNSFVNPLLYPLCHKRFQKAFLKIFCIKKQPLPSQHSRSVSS
compound,measurement,setting,value
O=C(CCc1ccc2n1[B-](F)(F)[N+]1=C(c3ccc[nH]3)C=CC1=C2)NCCOCCOCCNC(=O)OCCOCCN1CCN(C2=Nc3ccccc3Sc3ccccc32)CC1 [Quetiapine-a-2-NB590],NanoBRET Fold Response,"[1]; HRH4, tracer 0.1μM",1.01
same,NanoBRET Fold Response,"[1]; HRH4, tracer 1μM",0.96
same,NanoBRET Fold Response,"[2]; C5AR1, tracer 0.1μM",1.07
same,NanoBRET Fold Response,"[2]; C5AR1, tracer 1μM",0.84
same,NanoBRET Fold Response,"[3]; P2RY4, tracer 0.1μM",1.05
same,NanoBRET Fold Response,"[3]; P2RY4, tracer 1μM",0.84
same,NanoBRET Fold Response,"[4]; GALR2, tracer 0.1μM",1.01
same,NanoBRET Fold Response,"[4]; GALR2, tracer 1μM",0.83
O=C(CCOCCOCCOCCOCCNC(=O)CCc1ccc2n1[B-](F)(F)[N+]1=C(c3ccc[nH]3)C=CC1=C2)NCCCN1CCN(C2=Nc3cc(Cl)ccc3Nc3ccccc32)CC1 [Clozapine-a-2-NB590],NanoBRET Fold Response,"[1]; HRH4, 0.1μM tracer",1.00
same,NanoBRET Fold Response,"[1]; HRH4, 1μM tracer",1.07
same,NanoBRET Fold Response,"[2]; C5AR1, 0.1μM tracer",1.04
same,NanoBRET Fold Response,"[2]; C5AR1, 1μM tracer",1.11
same,NanoBRET Fold Response,"[3]; P2RY4, 0.1μM tracer",1.09
same,NanoBRET Fold Response,"[3]; P2RY4, 1μM tracer",0.96
same,NanoBRET Fold Response,"[4]; GALR2, 0.1μM tracer",1.09
same,NanoBRET Fold Response,"[4]; GALR2, 1μM tracer",1.19
N#CN=C(NCCCOc1cccc(CN2CCCCC2)c1)NCCNC(=O)CCOCCOCCOCCOCCNC(=O)CCc1ccc2n1[B-](F)(F)[N+]1=C(c3ccc[nH]3)C=CC1=C2 [Aminopotentidine-2-NB590],NanoBRET Fold Response,"[1]; HRH4, tracer 0.1μM",0.91
same,NanoBRET Fold Response,"[1]; HRH4, tracer 1μM",1.02
same,NanoBRET Fold Response,"[2]; C5AR1, tracer 0.1μM",0.99
same,NanoBRET Fold Response,"[2]; C5AR1, tracer 1μM",0.98
same,NanoBRET Fold Response,"[3]; P2RY4, tracer 0.1μM",1.09
same,NanoBRET Fold Response,"[3]; P2RY4, tracer 1μM",1.07
same,NanoBRET Fold Response,"[4]; GALR2, tracer 0.1μM",0.94
same,NanoBRET Fold Response,"[4]; GALR2, tracer 1μM",0.99
O=C(CCc1ccc2n1[B-](F)(F)[N+]1=C(c3ccc[nH]3)C=CC1=C2)NCc1ccc(C(=O)NCCOCCOCCNCC(O)COc2cccc3ccccc23)cc1 (stereo not drawn) [Propranolol-3-NB590],NanoBRET Fold Response,"[1]; HRH4, 0.1μM",0.92
same,NanoBRET Fold Response,"[1]; HRH4, 1μM",0.97
same,NanoBRET Fold Response,"[2]; C5AR1, 0.1μM",1.05
same,NanoBRET Fold Response,"[2]; C5AR1, 1μM",1.03
same,NanoBRET Fold Response,"[3]; P2RY4, 0.1μM",1.03
same,NanoBRET Fold Response,"[3]; P2RY4, 1μM",0.92
same,NanoBRET Fold Response,"[4]; GALR2, 0.1μM",1.00
same,NanoBRET Fold Response,"[4]; GALR2, 1μM",0.99
O=C(CCc1ccc2n1[B-](F)(F)[N+]1=C(c3ccc[nH]3)C=CC1=C2)NCc1ccc(C(=O)NCCOCCC(=O)N[C@@H]2CC[C@@]3(O)[C@H]4Cc5ccc(O)c6c5[C@@]3(CCN4CC3CC3)[C@H]2O6)cc1 [Naltrexone-3-NB590],NanoBRET Fold Response,"[1]; HRH4, tracer 0.1μM",0.75
same,NanoBRET Fold Response,"[1]; HRH4, tracer 1μM",0.91
same,NanoBRET Fold Response,"[2]; C5AR1, tracer 0.1μM",0.94
same,NanoBRET Fold Response,"[2]; C5AR1, tracer 1μM",0.93
same,NanoBRET Fold Response,"[3]; P2RY4, tracer 0.1μM",1.32
same,NanoBRET Fold Response,"[3]; P2RY4, tracer 1μM",0.88
same,NanoBRET Fold Response,"[4]; GALR2, tracer 0.1μM",1.00
same,NanoBRET Fold Response,"[4]; GALR2, tracer 1μM",0.98
COc1ccccc1N1CCN(CCCCN2C(=O)c3ccc(CNC(=O)CCOCCNC(=O)c4ccc(CNC(=O)CCc5ccc6n5[B-](F)(F)[N+]5=C(c7ccc[nH]7)C=CC5=C6)cc4)cc3C2=O)CC1 [NAN-190-3-NB590],NanoBRET Fold Response,"[1]; HRH4, tracer 0.1μM",0.93
same,NanoBRET Fold Response,"[1]; HRH4, tracer 1μM",0.93
same,NanoBRET Fold Response,"[2]; C5AR1, tracer 0.1μM",1.02
same,NanoBRET Fold Response,"[2]; C5AR1, tracer 1μM",1.10
same,NanoBRET Fold Response,"[3]; P2RY4, tracer 0.1μM",0.86
same,NanoBRET Fold Response,"[3]; P2RY4, tracer 1μM",0.82
same,NanoBRET Fold Response,"[4]; GALR2, tracer 0.1μM",1.03
same,NanoBRET Fold Response,"[4]; GALR2, tracer 1μM",1.00
Cc1cc2c(s1)Nc1ccccc1N=C2N1CCN(CCCNC(=O)CCOCCOCCOCCOCCNC(=O)CCc2ccc3n2[B-](F)(F)[N+]2=C(c4ccc[nH]4)C=CC2=C3)CC1 [Olanzapine-a-2-NB590],NanoBRET Fold Response,"[1]; HRH4, tracer 0.1μM",1.01
same,NanoBRET Fold Response,"[1]; HRH4, tracer 1μM",0.94
same,NanoBRET Fold Response,"[2]; C5AR1, tracer 0.1μM",1.06
same,NanoBRET Fold Response,"[2]; C5AR1, tracer 1μM",1.09
same,NanoBRET Fold Response,"[3]; P2RY4, tracer 0.1μM",1.07
same,NanoBRET Fold Response,"[3]; P2RY4, tracer 1μM",0.95
same,NanoBRET Fold Response,"[4]; GALR2, tracer 0.1μM",0.96
same,NanoBRET Fold Response,"[4]; GALR2, tracer 1μM",1.07
CCCn1c(=O)c2[nH]c(-c3ccc(OCC(=O)NCCNC(=O)CCOCCNC(=O)c4ccc(CNC(=O)CCc5ccc6n5[B-](F)(F)[N+]5=C(c7ccc[nH]7)C=CC5=C6)cc4)cc3)nc2n(CCC)c1=O [XAC-3-NB590],NanoBRET Fold Response,"[1]; HRH4, tracer 0.1μM",1.37
same,NanoBRET Fold Response,"[1]; HRH4, tracer 1μM",1.05
same,NanoBRET Fold Response,"[2]; C5AR1, tracer 0.1μM",0.95
same,NanoBRET Fold Response,"[2]; C5AR1, tracer 1μM",1.04
same,NanoBRET Fold Response,"[3]; P2RY4, tracer 0.1μM",1.07
same,NanoBRET Fold Response,"[3]; P2RY4, tracer 1μM",0.79
same,NanoBRET Fold Response,"[4]; GALR2, tracer 0.1μM",1.07
same,NanoBRET Fold Response,"[4]; GALR2, tracer 1μM",0.96
COc1ccc2c(n1)c(CCNC(C)=O)cn2CCNC(=O)CCc1ccc2n1[B-](F)(F)[N+]1=C(c3ccc[nH]3)C=CC1=C2 [Azamelatonin-1-NB590],NanoBRET Fold Response,[1]; 0.1μM tracer,0.92
same,NanoBRET Fold Response,[1]; 1μM tracer,0.92
same,NanoBRET Fold Response,[2]; 0.1μM tracer,0.90
same,NanoBRET Fold Response,[2]; 1μM tracer,0.94
same,NanoBRET Fold Response,[3]; 0.1μM tracer,1.10
same,NanoBRET Fold Response,[3]; 1μM tracer,1.10
same,NanoBRET Fold Response,[4]; 0.1μM tracer,0.91
same,NanoBRET Fold Response,[4]; 1μM tracer,1.23
